# Earlier results, collected in patent US7811790B2, “Polymyxin synthetase and gene cluster thereof” (priority 2005, dated 2010).
# What was measured:
# [1] = tested on: antibiotics-resistant Klebsiella pneumoniae; conditions: ventriculis caused by antibiotics-resistant Klebsiella pneumoniae
# [2] = tested on: Pseudomonas aeruginosa and Acinetobacter baumannii exhibiting resistance against the conventional antibiotics; conditions: intravenously injected, 60 patients
# [3] = tested on: Pseudomonas aeruginosa having resistance against almost all antibiotics; conditions: 3 osteomyelitis patients
# [4] = tested on: Acinetobacter having resistance against antibiotics; conditions: meningitis caused by antibiotic-resistant Acinetobacter
# [5] = therapeutic use
# [6] = water and organic solvent
substance,measurement,setting,value
polymyxin B sulfate,killed % of Pseudomonas aeruginosa,Pseudomonas aeruginosa; at the concentration of 0.01 μg/ml,88%
polymyxin B,effect on gram-positive bacteria,gram-positive bacteria,no effect
same,effect on fungi,fungi,no effect
same,effect on anaerobic bacteria,anaerobic bacteria,no effect
same,outcome of treatment of ventriculis,[1],successfully treated
polymyxin E,concentration showing lethal effect,"Pseudomonas aeruginosa; organism not restated in the sentence, follows the Pseudomonas aeruginosa sentence",0.1 µg/mL
same,effect on gram-positive bacteria,gram-positive bacteria,no effect
same,effect on fungi,fungi,no effect
same,effect on anaerobic bacteria,anaerobic bacteria,no effect
same,patients improved,[2],58%
same,outcome of treatment of osteomyelitis,[3],improved
same,outcome of treatment of meningitis,[4],successfully treated
polymyxin,induced toxicity,[5],severe neurotoxicity and hepatotoxicity
same,side effects,[5],"serious side effects such as fever, eruption and pain"
same,solubility,[6],soluble in both water and an organic solvent
